Laboratory results taken from patent publication US8846710B2, “Method of preferentially inducing the biosynthesis of interferon” (3M Innovative Properties Company, priority 2005, dated 2014).

Experiments:
interferon (α) (IFN-α) = assay: Cytokine induction in human cells: IFN-α secreted by PBMC into culture media (ELISA); assay type: cell-based; settings: for Maximal Response IFN / minimal effective concentration / Minimum Effective Concentration IFN: human PBMC; for Maximal Response IFN / Minimum Effective Concentration IFN: median where tested in more than one experiment; for minimal effective concentration: lowest tested concentration inducing IFN-α over usually 20 pg/mL, median where more than one experiment, read-out: Minimum Effective Concentration (μM) IFN; for Maximal Response (pg/mL) IFN: maximal response in dose response curve, median
Procedure, shortened: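 IFN-α secreted by density-gradient-isolated PBMC (final 2×10^6 cells/mL) was quantified by ELISA after 18–24 h compound exposure at 37 °C, typically 30-0.014 μM in 3-fold steps with ≤1% DMSO. Readings corrected for background and reference-compound variability; lowest concentration above usually 20 pg/mL reported, plus maximal response (pg/mL).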

[1] = tested on: tumor necrosis factor (α) (TNF-α); assay: Cytokine induction in human cells: TNF-α secreted by PBMC into culture media (ORIGEN M-Series immunoassay); assay type: cell-based; set-up: key to Maximal Response (pg/mL) TNF / Maximal Response TNF: If any negative values result from background subtraction, the reading is reported as “*”, and is noted as not reliably detectable; settings: for Maximal Response TNF / minimal effective concentration / Minimum Effective Concentration TNF: human PBMC; for Maximal Response TNF / Maximal Response (pg/mL) TNF: median; for minimal effective concentration: lowest tested concentration inducing TNF-α over usually 40 pg/mL, median where more than one experiment, read-out: Minimum Effective Concentration (μM) TNF; for Maximal Response (pg/mL) TNF: maximal response in dose response curve; for Minimum Effective Concentration TNF: median where tested in more than one experiment
Procedure, shortened: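 Secreted TNF-α (pg/mL) was quantified by ORIGEN M-Series immunoassay after 18 to 24 hours culture at 37° C of human PBMC (2×10^6 cells/mL final) with test compound (usually 30-0.014 μM, 3-fold series, DMSO ≤1%). Values were corrected for DMSO or experimental background and a reference-compound ratio, giving a minimum effective concentration.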

[2] = Table 11, * = TNF below experimental background of 40 pg/mL
[3] = Table 10, * = below experimental background level
[4] = Table 7, background-subtracted, reference-adjusted

SMILES	Maximal Response IFN (interferon (α) (IFN-α); Table 11)	Maximal Response TNF [1, 2]	Minimum Effective Concentration IFN (interferon (α) (IFN-α); Table 11)	Minimum Effective Concentration TNF ([1]; Table 11)	other results
CC(C)C(=O)NCCCn1c(CCO)nc2c(N)nc3ccccc3c21 [Example 141, N-{3-[4-Amino-2-(2-hydroxyethyl)-1H-imidazo[4,5-c]quinolin-1-yl]propyl}-2-methylpropionamide]	14046 pg/mL	243 pg/mL	–	–	–
CCOCc1nc2c(N)nc3cc(-c4cncc(CO)c4)ccc3c2n1CC(C)(C)O [Analog 14]	–	–	–	–	minimal effective concentration (interferon (α) (IFN-α); Table 10): 0.014 µM; Maximal Response (pg/mL) IFN (interferon (α) (IFN-α); [3]): 6308 pg/mL; minimal effective concentration ([1]; Table 10): 0.12 µM; Maximal Response (pg/mL) TNF [1, 3]: 18284 pg/mL
CCc1nc2c(N)nc3ccccc3c2n1CCNC(=O)CC(C)C [Analog 105]	851 pg/mL	587 pg/mL	3.33 µM	30 µM	–
COCCc1nc2c(N)nc3ccccc3c2n1CCCNC(=O)c1ccccc1 [Analog 102]	1504 pg/mL	3080 pg/mL	0.014 µM	1.11 µM	–
CCOCc1nc2c(N)nc3ccccc3c2n1CC(C)(C)CS(C)(=O)=O [Analog 124]	1924 pg/mL	9513 pg/mL	0.12 µM	0.37 µM	–
CC(C)NC(=O)NC(C)(C)Cn1c(CO)nc2c(N)nc3ccccc3c21 [Example 142, 1-[2-(4-Amino-2-hydroxymethyl-1H-imidazo[4,5-c]quinolin-1-yl)-1,1-dimethylethyl]-3-(1-methylethyl)urea]	1554 pg/mL	*	–	–	–
CS(=O)(=O)CCCCCn1c(CCO)nc2c(N)nc3ccccc3c21 [Example 125]	8361 pg/mL	*	0.37 µM	>30 µM	–
CCNC(=O)NCCn1c(CCOC)nc2c(N)nc3ccccc3c21 [Analog 104]	2587 pg/mL	7719 pg/mL	0.014 µM	0.12 µM	–
CCOCc1nc2c(N)nc3cc(-c4cncc(CO)c4)ccc3c2n1CC1CCN(C(=O)C(C)C)CC1 [Analog 44]	–	–	–	–	minimal effective concentration (interferon (α) (IFN-α); Table 10): 0.04 µM; Maximal Response (pg/mL) IFN (interferon (α) (IFN-α); [3]): 1382 pg/mL; minimal effective concentration ([1]; Table 10): 1.11 µM; Maximal Response (pg/mL) TNF [1, 3]: 3128 pg/mL
Cc1nc2c(N)nc3cccnc3c2n1CC(C)C [Analog 133, 2-methyl-1-(2-methylpropyl)-1H-imidazo[4,5-c][1,5]naphthyridin-4-amine]	–	–	–	–	Maximal Response IFN (interferon (α) (IFN-α); Table 12): 1117 pg/mL; Maximal Response TNF ([1]; Table 12, * = below the experimental background of 40 pg/mL): 699 pg/mL
CC(C)Cn1c(CCO)nc2c(N)nc3cc(-c4cncc(CO)c4)ccc3c21 [Example 159]	–	–	–	–	minimal effective concentration (interferon (α) (IFN-α); Table 10): 0.12 µM; minimal effective concentration ([1]; Table 10): 10 µM
Cc1nc2c(N)nc3ccccc3c2n1CCCNC(=O)N1CCOCC1 [Analog 87]	4843 pg/mL	463 pg/mL	0.37 µM	30 µM	–
Cc1nc2c(N)nc3ccccc3c2n1CCCNC(=O)NC(C)C [Analog 81]	1134 pg/mL	490 pg/mL	3.33 µM	10 µM	–
CCOCc1nc2c(N)nc3ccccc3c2n1CC(C)(C)CNS(C)(=O)=O [Analog 66]	561 pg/mL	3768 pg/mL	0.12 µM	0.37 µM	–
COCc1nc2c(N)nc3ccccc3c2n1CC(C)(C)CNC(=O)c1ccccc1 [Analog 94]	2518 pg/mL	9721 pg/mL	1.11 µM	3.33 µM	–
CN(CCOCCn1c(CCO)nc2c(N)nc3ccccc3c21)C(=O)c1ccccc1 [Example 134]	8361 pg/mL	315 pg/mL	3.33 µM	30 µM	–
CCOCc1nc2c(N)nc3ccccc3c2n1CC(C)(C)NS(C)(=O)=O [Analog 4, N-[2-(4-Amino-2-ethoxymethyl-1H-imidazo[4,5-c]quinolin-1-yl)-1,1-dimethylethyl]methanesulfonamide]	1138 pg/mL	10665 pg/mL	–	–	Maximal Response (pg/mL) IFN (interferon (α) (IFN-α); [4]): 889 pg/mL; Maximal Response (pg/mL) TNF [1, 4]: 10125 pg/mL
